# In publication PMC10746543, “Design principles for cyclin K molecular glue degraders” (Nature Chemical Biology, 2023):
# Several values for one entry are separate records, joined by “and”; a condition that tells them apart may be missing. Equal values may be shown once. Read-outs that look alike come from different tables or passages of the source.
# Assays:
# HEK293T cells = test: Drug sensitivity assay (CellTiter-Glo viability) with or without MLN4924 pretreatment; format: cell-based, human; details: Supplementary Table 2
# Method in brief: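 HEK293T–Cas9 cells at 0.15 × 10^6 ml^−1 were treated with DMSO or 100 nM MLN4924 before plating. Test drugs were added 2 h later and exposure lasted 3 days. Viability was read by CellTiter-Glo luminescence and expressed relative to DMSO controls.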
# [1] = test system: cyclin K–eGFP degradation reporter; test: Cyclin K reporter stability analysis (dual-color cyclin K–eGFP reporter); format: cell-based, human; details: source data sheet correlations; read-out: DC50
# Method in brief: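 Cells (HEK293T–Cas9, reporter-expressing) at 1 × 10^6 ml^−1; 5 h compound or DMSO; flow cytometry; gMFI eGFP ÷ mCherry on round mCherry-positive events; normalized to 3 DMSO controls.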
# CDK12–cyclin K = CDK12–cyclin K (Homo sapiens, UniProt Q9NYV4); test: Lanthascreen kinase binding assay, CDK12; details: for Lanthascreen raw signal, sheet CDK12: series r37, duplicates
# Procedure: (§1) Lanthascreen experiments were performed using commercially available reagents (Thermo Fisher) and according to the manufacturer’s instructions.
# CDK2–cyclin A = biological target: T1, CDK2–cyclin A (Homo sapiens, UniProt P24941); test: Lanthascreen kinase binding assay, CDK2; details: for Lanthascreen signal, sheet CDK2: raw replicates, experiment r36-r46
# T1 construct: purchased Thermo Fisher
# Procedure: as §1
# CDK12–cyclin K and DDB1 = biological target: T2, CDK12–cyclin K and DDB1 (Homo sapiens, UniProt Q16531+Q9NYV4, K965R); test: TR-FRET ternary complex formation assay (compound titration); format: binding
# T2 construct: His6–CDK12 (a.a. 713–1,052); full-length or beta-propeller B domain deletion (ΔBPB: a.a. 396–705 deleted) constructs of His6–DDB1ΔBPB, StrepII–Avi–DDB1, or His6–Spy–DDB1; made in house; host or cells: Trichoplusia ni High Five insect cells (baculovirus)
# Method in brief: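 Read-out used a 70 μs delay to cut background fluorescence; TR-FRET signal taken as the 520 nm/490 nm emission ratio.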
# CDK9–cyclin T = biological target: T3, CDK9–cyclin T (Homo sapiens, UniProt P50750); test: Lanthascreen kinase binding assay, CDK9; details: for Lanthascreen TR-FRET signal (raw ratio), sheet CDK9: third titration set (r25), duplicates
# T3 construct: purchased Thermo Fisher
# Procedure: as §1
# Sequence of CDK12–cyclin K (Q9NYV4 713-1052): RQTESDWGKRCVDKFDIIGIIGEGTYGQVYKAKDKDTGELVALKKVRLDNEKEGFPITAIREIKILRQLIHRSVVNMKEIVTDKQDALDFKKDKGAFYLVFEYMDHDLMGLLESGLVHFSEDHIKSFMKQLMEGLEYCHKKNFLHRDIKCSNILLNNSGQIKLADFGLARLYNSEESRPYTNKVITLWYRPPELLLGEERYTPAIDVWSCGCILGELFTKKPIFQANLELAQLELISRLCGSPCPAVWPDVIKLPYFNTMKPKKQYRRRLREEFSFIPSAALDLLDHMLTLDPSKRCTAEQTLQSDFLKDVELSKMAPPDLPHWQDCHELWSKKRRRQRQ
# Sequence of CDK12–cyclin K (O75909 1-267 partner limits assumed): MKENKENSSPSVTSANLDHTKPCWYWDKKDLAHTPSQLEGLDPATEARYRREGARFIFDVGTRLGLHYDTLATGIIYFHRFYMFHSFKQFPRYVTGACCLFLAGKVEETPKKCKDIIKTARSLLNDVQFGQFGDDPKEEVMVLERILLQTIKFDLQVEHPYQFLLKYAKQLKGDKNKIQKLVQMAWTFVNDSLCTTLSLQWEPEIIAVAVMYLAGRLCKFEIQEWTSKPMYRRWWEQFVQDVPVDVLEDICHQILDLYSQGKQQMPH
# T2 sequence (Q9NYV4 713-1052 K965R): as the sequence (Q9NYV4 713-1052) above, with K253R counted along it
# T2 sequence (O75909 1-267 partner): as the sequence (O75909 1-267 partner limits assumed) above
# T2 sequence (Q16531 whole entry): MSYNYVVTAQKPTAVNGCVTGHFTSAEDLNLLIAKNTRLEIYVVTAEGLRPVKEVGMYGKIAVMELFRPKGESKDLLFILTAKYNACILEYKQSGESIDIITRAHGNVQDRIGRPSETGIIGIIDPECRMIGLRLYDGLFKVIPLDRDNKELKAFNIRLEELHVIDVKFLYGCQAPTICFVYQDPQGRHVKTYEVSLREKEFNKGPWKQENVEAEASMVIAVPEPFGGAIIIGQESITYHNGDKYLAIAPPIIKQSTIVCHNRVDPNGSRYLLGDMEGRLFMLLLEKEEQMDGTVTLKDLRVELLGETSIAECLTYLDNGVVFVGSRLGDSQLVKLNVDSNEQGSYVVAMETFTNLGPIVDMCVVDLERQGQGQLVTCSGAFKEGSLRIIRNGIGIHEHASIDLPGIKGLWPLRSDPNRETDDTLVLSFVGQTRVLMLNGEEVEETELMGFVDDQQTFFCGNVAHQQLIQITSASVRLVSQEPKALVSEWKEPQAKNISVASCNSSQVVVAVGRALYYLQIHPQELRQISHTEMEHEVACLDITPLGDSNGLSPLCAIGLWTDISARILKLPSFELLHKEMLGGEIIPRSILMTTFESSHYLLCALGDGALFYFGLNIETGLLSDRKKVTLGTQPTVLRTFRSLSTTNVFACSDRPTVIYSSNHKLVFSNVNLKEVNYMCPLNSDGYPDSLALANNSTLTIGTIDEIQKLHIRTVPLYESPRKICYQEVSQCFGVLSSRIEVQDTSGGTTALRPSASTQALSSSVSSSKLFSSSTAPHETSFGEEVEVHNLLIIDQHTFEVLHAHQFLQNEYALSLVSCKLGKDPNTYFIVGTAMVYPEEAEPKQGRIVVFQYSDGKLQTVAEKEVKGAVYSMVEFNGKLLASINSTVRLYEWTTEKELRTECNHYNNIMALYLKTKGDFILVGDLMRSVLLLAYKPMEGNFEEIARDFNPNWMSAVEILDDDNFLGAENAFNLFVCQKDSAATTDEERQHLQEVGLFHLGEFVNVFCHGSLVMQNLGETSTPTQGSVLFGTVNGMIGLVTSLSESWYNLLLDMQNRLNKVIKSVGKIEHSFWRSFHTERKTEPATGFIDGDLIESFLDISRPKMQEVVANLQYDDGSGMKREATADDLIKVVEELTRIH
# T3 sequence (P50750 whole entry): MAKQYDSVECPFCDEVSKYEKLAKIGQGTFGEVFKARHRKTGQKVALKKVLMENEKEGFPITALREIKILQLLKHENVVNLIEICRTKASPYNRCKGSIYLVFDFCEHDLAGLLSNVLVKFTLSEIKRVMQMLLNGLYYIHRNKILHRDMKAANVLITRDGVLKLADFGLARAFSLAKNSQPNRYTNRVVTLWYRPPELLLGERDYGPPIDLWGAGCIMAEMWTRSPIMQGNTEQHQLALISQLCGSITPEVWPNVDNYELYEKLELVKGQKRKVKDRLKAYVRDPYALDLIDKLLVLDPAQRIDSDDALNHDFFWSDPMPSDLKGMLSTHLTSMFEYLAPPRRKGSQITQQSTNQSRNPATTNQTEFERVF
# T3 sequence (O60563 whole entry partner): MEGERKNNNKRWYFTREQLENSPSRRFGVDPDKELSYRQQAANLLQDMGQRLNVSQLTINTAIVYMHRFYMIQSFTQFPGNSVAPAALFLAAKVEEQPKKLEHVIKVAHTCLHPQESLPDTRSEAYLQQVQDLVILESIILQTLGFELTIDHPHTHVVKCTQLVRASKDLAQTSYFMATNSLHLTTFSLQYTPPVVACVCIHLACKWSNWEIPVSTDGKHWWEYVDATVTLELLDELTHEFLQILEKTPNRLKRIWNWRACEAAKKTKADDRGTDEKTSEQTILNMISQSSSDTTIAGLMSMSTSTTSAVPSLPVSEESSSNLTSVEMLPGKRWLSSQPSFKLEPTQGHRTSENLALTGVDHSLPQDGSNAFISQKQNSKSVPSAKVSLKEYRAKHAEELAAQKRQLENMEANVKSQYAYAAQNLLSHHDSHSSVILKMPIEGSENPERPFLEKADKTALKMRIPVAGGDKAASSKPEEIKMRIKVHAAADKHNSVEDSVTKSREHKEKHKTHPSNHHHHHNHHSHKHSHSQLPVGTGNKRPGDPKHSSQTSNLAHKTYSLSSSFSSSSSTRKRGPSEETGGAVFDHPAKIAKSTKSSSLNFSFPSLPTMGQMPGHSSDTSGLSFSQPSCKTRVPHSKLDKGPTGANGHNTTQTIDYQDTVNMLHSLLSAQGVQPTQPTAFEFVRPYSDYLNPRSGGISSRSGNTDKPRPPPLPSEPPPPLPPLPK
smiles,measurement,setting,value
CC[C@H](CO)Nc1nc(NCc2nc3cc(Cl)c(Cl)cc3[nH]2)c2ncn(-c3cnn(C)c3)c2n1 [DS22],EC50,"HEK293T cells; Homo sapiens, HEK-293T, HEK293T viability, 72 h, compound alone, read-out: Cellular assays EC50",0.935 µM
same,Toxicity rescue,"HEK293T cells; MLN4924-mediated cytotoxicity rescue, 10 µM used where n.d.",66%
same,DC50,[1],0.109 µM
same,IC50,"CDK12–cyclin K; Supplementary Table 2, read-out: Lanthascreen IC50 [nM] CDK12",1320 nM
same,"Lanthascreen raw signal, sheet CDK12",CDK12–cyclin K; compound 0.038147 nM,0.01422 and 0.01468
same,"Lanthascreen raw signal, sheet CDK12",CDK12–cyclin K; compound 0.152588 nM,0.01335 and 0.01357
same,"Lanthascreen raw signal, sheet CDK12",CDK12–cyclin K; compound 0.610352 nM,0.01416 and 0.01634
same,"Lanthascreen raw signal, sheet CDK12",CDK12–cyclin K; compound 9.76563 nM,0.01407 and 0.01436
same,"Lanthascreen raw signal, sheet CDK12",CDK12–cyclin K; compound 39.0625 nM,0.01347 and 0.01362
same,"Lanthascreen raw signal, sheet CDK12",CDK12–cyclin K; compound 156.25 nM,0.01258 and 0.01228
same,"Lanthascreen raw signal, sheet CDK12",CDK12–cyclin K; compound 625 nM,0.01036 and 0.01104
same,"Lanthascreen raw signal, sheet CDK12",CDK12–cyclin K; compound 2500 nM,0.007943 and 0.008192
same,"Lanthascreen raw signal, sheet CDK12",CDK12–cyclin K; compound 10000 nM,0.006259 and 0.005981
same,"Lanthascreen signal, sheet CDK2",CDK2–cyclin A; Compound 0.038147 nM,0.01361 and 0.01332
same,"Lanthascreen signal, sheet CDK2",CDK2–cyclin A; Compound 0.152588 nM,0.01367 and 0.01361
same,"Lanthascreen signal, sheet CDK2",CDK2–cyclin A; Compound 0.610352 nM,0.01456 and 0.01463
same,"Lanthascreen signal, sheet CDK2",CDK2–cyclin A; Compound 9.76563 nM,0.01461 and 0.01423
same,"Lanthascreen signal, sheet CDK2",CDK2–cyclin A; Compound 39.0625 nM,0.01375 and 0.01404
same,"Lanthascreen signal, sheet CDK2",CDK2–cyclin A; Compound 156.25 nM,0.01392 and 0.01367
same,"Lanthascreen signal, sheet CDK2",CDK2–cyclin A; Compound 625 nM,0.01433 and 0.01409
same,"Lanthascreen signal, sheet CDK2",CDK2–cyclin A; Compound 2500 nM,0.01378 and 0.01394
same,"Lanthascreen signal, sheet CDK2",CDK2–cyclin A; Compound 10000 nM,0.01296 and 0.01217
same,IC50,"CDK2–cyclin A; Lanthascreen, average, Extended Data Fig. 8, read-out: CDK2 IC50",> 10000 nM
same,IC50,"CDK2–cyclin A; Supplementary Table 2, read-out: Lanthascreen IC50 [nM] CDK2",> 10000 nM
same,TR-FRET signal at compound concentration 0.468 nM,"CDK12–cyclin K and DDB1; compound concentration 0.468 nM, raw replicate titration data",0.2612 and 0.2579 and 0.218 and 0.2096
same,TR-FRET signal at compound concentration 2.16 nM,"CDK12–cyclin K and DDB1; compound concentration 2.16 nM, raw replicate titration data",0.3357 and 0.3419 and 0.2765 and 0.3174
same,TR-FRET signal at compound concentration 3.6 nM,"CDK12–cyclin K and DDB1; compound concentration 3.6 nM, raw replicate titration data",0.4892 and 0.5148 and 0.5183 and 0.5347
same,TR-FRET signal at compound concentration 7.92001 nM,"CDK12–cyclin K and DDB1; compound concentration 7.92001 nM, raw replicate titration data",0.8316 and 0.8843 and 0.9885 and 1.068
same,TR-FRET signal at compound concentration 15.84 nM,"CDK12–cyclin K and DDB1; compound concentration 15.84 nM, raw replicate titration data",1.474 and 1.574 and 1.714 and 1.959
same,TR-FRET signal at compound concentration 30.96 nM,"CDK12–cyclin K and DDB1; compound concentration 30.96 nM, raw replicate titration data",2.47 and 2.714 and 3.094 and 3.238
same,TR-FRET signal at compound concentration 62.6401 nM,"CDK12–cyclin K and DDB1; compound concentration 62.6401 nM, raw replicate titration data",3.3967 and 3.4513 and 3.77 and 3.733
same,TR-FRET signal at compound concentration 125.28 nM,"CDK12–cyclin K and DDB1; compound concentration 125.28 nM, raw replicate titration data",3.673 and 3.6963 and 3.89 and 3.859
same,TR-FRET signal at compound concentration 244.8 nM,"CDK12–cyclin K and DDB1; compound concentration 244.8 nM, raw replicate titration data",3.796 and 3.869 and 3.911 and 3.923
same,TR-FRET signal at compound concentration 993.601 nM,"CDK12–cyclin K and DDB1; compound concentration 993.601 nM, raw replicate titration data",3.806 and 3.925 and 3.935 and 3.945
same,TR-FRET signal at compound concentration 2001.6 nM,"CDK12–cyclin K and DDB1; compound concentration 2001.6 nM, raw replicate titration data",3.846 and 3.958 and 4 and 4.014
same,EC50,"CDK12–cyclin K and DDB1; in vitro complex formation, 50 nM CDK12–cyclin K, 100 nM DDB1, text and figures, read-out: TR-FRET EC50",0.019 ± 0.001 µM
same,EC50,"CDK12–cyclin K and DDB1; sheet MOESM7, read-out: log TR-FRET EC50 (converted)",0.0193 µM
same,EC50,"CDK12–cyclin K and DDB1; source data sheet correlations, read-out: TR-FRET EC50",0.0193 µM
same,IC50,"CDK9–cyclin T; Lanthascreen, average, Extended Data Fig. 8, read-out: CDK9 IC50",> 10000 nM
same,IC50,"CDK9–cyclin T; Supplementary Table 2, read-out: Lanthascreen IC50 [nM] CDK9",> 10000 nM
same,"Lanthascreen TR-FRET signal (raw ratio), sheet CDK9",CDK9–cyclin T; compound 0.038147 nM,0.01967 and 0.01921
same,"Lanthascreen TR-FRET signal (raw ratio), sheet CDK9",CDK9–cyclin T; compound 0.152588 nM,0.02095 and 0.01844
same,"Lanthascreen TR-FRET signal (raw ratio), sheet CDK9",CDK9–cyclin T; compound 0.610352 nM,0.02014 and 0.01923
same,"Lanthascreen TR-FRET signal (raw ratio), sheet CDK9",CDK9–cyclin T; compound 9.76563 nM,0.02017 and 0.01981
same,"Lanthascreen TR-FRET signal (raw ratio), sheet CDK9",CDK9–cyclin T; compound 39.0625 nM,0.02067 and 0.01823
same,"Lanthascreen TR-FRET signal (raw ratio), sheet CDK9",CDK9–cyclin T; compound 156.25 nM,0.02063 and 0.01896
same,"Lanthascreen TR-FRET signal (raw ratio), sheet CDK9",CDK9–cyclin T; compound 625 nM,0.01918 and 0.01876
same,"Lanthascreen TR-FRET signal (raw ratio), sheet CDK9",CDK9–cyclin T; compound 2500 nM,0.01797 and 0.01674
same,"Lanthascreen TR-FRET signal (raw ratio), sheet CDK9",CDK9–cyclin T; compound 10000 nM,0.01641 and 0.01561
